Assay results as given in the NIST ThermoML archive (doi:10.1016/j.tca.2017.10.021).
Numbers after ± are expanded uncertainties.

Settings: Crystal, Transpiration method

| SMILES | vapor or sublimation pressure (463 K) [kPa] | vapor or sublimation pressure (473 K) [kPa] | vapor or sublimation pressure (483 K) [kPa] | vapor or sublimation pressure (493 K) [kPa] | vapor or sublimation pressure (503 K) [kPa] | vapor or sublimation pressure (513 K) [kPa] | vapor or sublimation pressure (543 K) [kPa] | vapor or sublimation pressure (393 K) [kPa] | vapor or sublimation pressure (403 K) [kPa] | vapor or sublimation pressure (413 K) [kPa] | vapor or sublimation pressure (423 K) [kPa] | vapor or sublimation pressure (435.5 K) [kPa] | vapor or sublimation pressure (455 K) [kPa] |
| --- | --- | --- | --- | --- | --- | --- | --- | --- | --- | --- | --- | --- | --- |
| Cl.N [ammonium chloride (NH4Cl)] | 0.4871 ± 0.02 | 0.7748 ± 0.031 | 1.14 ± 0.045 | 1.683 ± 0.074 | 2.758 ± 0.12 | 3.639 ± 0.18 | 11.54 ± 0.52 |  |  |  |  |  |  |
| CN.Cl [methylammonium chloride] | 0.2868 ± 0.015 | 0.4424 ± 0.018 | 0.7211 ± 0.043 | 1.116 ± 0.057 |  | 2.499 ± 0.098 |  | 0.0044 ± 0.0003 | 0.0085 ± 0.0004 | 0.0171 ± 0.0008 | 0.0307 ± 0.0015 | 0.0643 ± 0.003 | 0.1683 ± 0.0068 |
